The structures appear in SMILES notation.

T1 sequence (O00763 144-2458): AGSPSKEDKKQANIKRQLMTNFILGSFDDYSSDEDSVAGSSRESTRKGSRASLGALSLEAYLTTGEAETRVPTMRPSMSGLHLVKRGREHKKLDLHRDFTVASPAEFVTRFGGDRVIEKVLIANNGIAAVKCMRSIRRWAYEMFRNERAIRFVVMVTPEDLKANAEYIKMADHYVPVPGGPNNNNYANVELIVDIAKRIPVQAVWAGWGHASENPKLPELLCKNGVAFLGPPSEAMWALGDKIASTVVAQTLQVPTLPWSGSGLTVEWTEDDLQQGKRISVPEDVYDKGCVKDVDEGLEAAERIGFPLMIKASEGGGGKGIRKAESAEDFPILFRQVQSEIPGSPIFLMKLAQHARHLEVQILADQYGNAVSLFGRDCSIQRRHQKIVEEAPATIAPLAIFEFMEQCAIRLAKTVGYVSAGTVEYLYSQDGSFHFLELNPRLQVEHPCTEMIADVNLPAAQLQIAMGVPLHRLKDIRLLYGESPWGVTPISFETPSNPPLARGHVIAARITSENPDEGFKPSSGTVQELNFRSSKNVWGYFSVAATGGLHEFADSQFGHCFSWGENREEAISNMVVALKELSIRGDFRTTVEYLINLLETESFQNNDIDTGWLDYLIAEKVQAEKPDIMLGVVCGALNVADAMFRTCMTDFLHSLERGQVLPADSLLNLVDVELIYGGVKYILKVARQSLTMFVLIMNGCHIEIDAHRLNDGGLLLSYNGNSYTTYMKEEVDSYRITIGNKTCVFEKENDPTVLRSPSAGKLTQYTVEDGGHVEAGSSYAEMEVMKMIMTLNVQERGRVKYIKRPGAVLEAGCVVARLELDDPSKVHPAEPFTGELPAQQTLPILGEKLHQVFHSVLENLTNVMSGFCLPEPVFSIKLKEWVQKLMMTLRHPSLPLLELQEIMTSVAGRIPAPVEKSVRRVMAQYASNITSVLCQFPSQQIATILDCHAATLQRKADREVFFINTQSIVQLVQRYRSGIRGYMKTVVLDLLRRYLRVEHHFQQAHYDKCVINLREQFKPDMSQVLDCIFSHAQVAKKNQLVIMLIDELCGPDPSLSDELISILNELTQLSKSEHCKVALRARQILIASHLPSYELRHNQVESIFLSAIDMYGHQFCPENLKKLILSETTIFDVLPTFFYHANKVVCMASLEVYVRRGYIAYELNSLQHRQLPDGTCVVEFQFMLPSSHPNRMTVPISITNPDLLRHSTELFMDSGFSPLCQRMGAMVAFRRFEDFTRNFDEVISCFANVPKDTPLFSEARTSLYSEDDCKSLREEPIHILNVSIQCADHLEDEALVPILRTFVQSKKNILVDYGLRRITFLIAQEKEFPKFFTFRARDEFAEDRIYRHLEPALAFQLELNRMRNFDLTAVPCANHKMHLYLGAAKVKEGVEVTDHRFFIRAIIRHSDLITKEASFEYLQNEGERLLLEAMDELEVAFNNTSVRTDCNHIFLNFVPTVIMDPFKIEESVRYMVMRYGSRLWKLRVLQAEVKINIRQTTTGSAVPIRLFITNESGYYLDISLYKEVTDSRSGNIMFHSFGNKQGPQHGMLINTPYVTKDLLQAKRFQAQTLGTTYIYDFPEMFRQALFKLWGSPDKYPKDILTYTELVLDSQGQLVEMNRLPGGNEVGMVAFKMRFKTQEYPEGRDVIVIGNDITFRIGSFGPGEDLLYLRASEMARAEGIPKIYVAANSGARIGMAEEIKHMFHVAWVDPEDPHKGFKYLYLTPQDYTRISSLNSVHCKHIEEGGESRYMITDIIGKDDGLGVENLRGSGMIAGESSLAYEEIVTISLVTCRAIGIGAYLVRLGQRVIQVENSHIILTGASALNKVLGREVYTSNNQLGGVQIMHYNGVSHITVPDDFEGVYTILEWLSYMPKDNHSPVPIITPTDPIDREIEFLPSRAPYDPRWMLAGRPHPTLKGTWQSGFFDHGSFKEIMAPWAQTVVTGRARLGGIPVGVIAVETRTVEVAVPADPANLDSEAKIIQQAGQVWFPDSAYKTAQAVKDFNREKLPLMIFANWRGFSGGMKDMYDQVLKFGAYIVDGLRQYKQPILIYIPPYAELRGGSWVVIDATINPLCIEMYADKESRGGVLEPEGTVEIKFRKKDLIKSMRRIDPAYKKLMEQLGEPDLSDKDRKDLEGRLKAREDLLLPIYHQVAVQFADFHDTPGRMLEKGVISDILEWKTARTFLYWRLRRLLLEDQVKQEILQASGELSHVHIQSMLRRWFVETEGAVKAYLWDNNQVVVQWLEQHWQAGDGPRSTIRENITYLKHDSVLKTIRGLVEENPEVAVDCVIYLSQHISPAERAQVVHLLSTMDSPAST

The assay has as its target T1, human acetyl-CoA carboxylase 2 (ACC2) (Homo sapiens, UniProt O00763).
T1 construct: The cDNA encoding amino acids 144 to 2458 of human acetyl-CoA carboxylase 2; made in house; host or cells: Sf9 insect cells (baculovirus, pFastBac1)
Nature of the assay: Acetyl-CoA carboxylase enzyme assay (malonyl-CoA formation by LC/MS/MS). It is filed as biochemical. The settings on record: recombinant human ACC2 (aa 144-2458); read-out: IC50 ACC2. In outline: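 Malonyl-CoA formation was read by LC/MS/MS MRM against a [13C3]-malonyl-CoA internal standard, after acetic acid quench. The enzyme was baculovirus/Sf9-expressed human ACC2 residues 144–2458, given 15 minutes room-temperature compound preincubation in HEPES pH 7.5 buffer with MgCl2, citrate and DTT. Substrate solution held 50 μM acetyl-CoA, 120 μM ATP and 2 mM KHCO3.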
Turning to `COC(=O)N1CCNc2ncc(S(=O)(=O)N[C@H]3CC[C@H](C(=O)N[C@H](C)c4ccc(F)cc4)CC3)cc21` [Example 222, methyl 7-(N-((1R,4r)-4-((R)-1-(4-fluorophenyl)ethylcarbamoyl)cyclohexyl)sulfamoyl)-3,4-dihydropyrido[3,2-b]pyrazine-1(2H)-carboxylate], the IC50 is 40 nM.

With `C[C@@H](NC(=O)[C@H]1CC[C@H](NS(=O)(=O)c2ccc3c(c2)C(=O)NCC3)CC1)c1ccc(F)cc1` [Example 223, (1r,4R)-N-((R)-1-(4-fluorophenyl)ethyl)-4-(1-oxo-1,2,3,4-tetrahydroisoquinoline-7-sulfonamido)cyclohexanecarboxamide], the IC50 was determined as 205 nM.

Turning to `COC(=O)C1CCc2ccc(S(=O)(=O)N[C@H]3CC[C@H](C(=O)N[C@H](C)c4ccc(F)cc4)CC3)cc2N1C` (stereo partly drawn) [Example 224, methyl 7-(N-((1R,4r)-4-((R)-1-(4-fluorophenyl)ethylcarbamoyl)cyclohexyl)sulfamoyl)-1-methyl-1,2,3,4-tetrahydroquinoline-2-carboxylate], the IC50 was 60 nM.

For the molecule `C[C@@H](NC(=O)[C@H]1CC[C@H](NS(=O)(=O)c2ccc3c(c2)N(C)C(C(=O)O)CC3)CC1)c1ccc(F)cc1` (stereo partly drawn) [Example 225, 7-(N-((1R,4r)-4-((R)-1-(4-fluorophenyl)ethylcarbamoyl)cyclohexyl)sulfamoyl)-1-methyl-1,2,3,4-tetrahydroquinoline-2-carboxylic acid], the IC50 turned out to be 85 nM.

Consider `C[C@@H](NC(=O)[C@H]1CC[C@H](NS(=O)(=O)c2ccc3c(c2)Cc2ccccc2-3)CC1)c1ccc(F)cc1` [Example 226, (1r,4R)-4-(9H-fluorene-2-sulfonamido)-N-((R)-1-(4-fluorophenyl)ethyl)cyclohexanecarboxamide], for which the IC50 was 10 nM.

On to `Cc1cc(-c2ccc3cc(S(=O)(=O)N[C@H]4CC[C@H](C(=O)N[C@H](C)c5ccc(F)cc5)CC4)ccc3n2)cc(C)n1` [Example 227, (1r,4R)-4-(2-(2,6-dimethylpyridin-4-yl)quinoline-6-sulfonamido)-N-((R)-1-(4-fluorophenyl)ethyl)cyclohexanecarboxamide], for which the IC50 is 15 nM.

With `CCOc1ccc2cc(S(=O)(=O)N[C@H]3CC[C@H](C(=O)N[C@H](CC(=O)O)c4ccccc4)CC3)ccc2n1` [Example 228, (R)-3-((1r,4R)-4-(2-ethoxyquinoline-6-sulfonamido)cyclohexanecarboxamido)-3-phenylpropanoic acid], the IC50 amounted to 213 nM.

As to `Cc1cc(-c2ccc3cc(S(=O)(=O)N[C@H]4CC[C@H](C(=O)N[C@H](C)c5ccc(F)cc5)CC4)ccc3n2)ccn1` [Example 229, (1r,4R)-N-((R)-1-(4-fluorophenyl)ethyl)-4-(2-(2-methylpyridin-4-yl)quinoline-6-sulfonamido)cyclohexanecarboxamide], the IC50 was determined as 20 nM.

Consider `C[C@@H](NC(=O)[C@H]1CC[C@H](NS(=O)(=O)c2ccc3nc(-c4ccccn4)ccc3c2)CC1)c1ccc(F)cc1` [Example 230, (1r,4R)-N-((R)-1-(4-fluorophenyl)ethyl)-4-(2-(pyridin-2-yl)quinoline-6-sulfonamido)cyclohexanecarboxamide], for which the IC50 came out at 60 nM.

Turning to `CCOc1ccc2cc(S(=O)(=O)N[C@H]3CC[C@](C)(C(=O)N[C@H](C)c4ccc(F)cc4)CC3)ccc2n1` [Example 231, (1r,4R)-4-(2-ethoxyquinoline-6-sulfonamido)-N-((R)-1-(4-fluorophenyl)ethyl)-1-methylcyclohexanecarboxamide], the IC50 is 10 nM.

Regarding `C[C@@H](NC(=O)[C@H]1CC[C@H](NS(=O)(=O)c2ccc3nc(N4CCN(C(=O)OC(C)(C)C)CC4)ccc3c2)CC1)c1ccc(F)cc1` [Example 232, tert-butyl 4-(6-(N-((1R,4r)-4-((R)-1-(4-fluorophenyl)ethylcarbamoyl)cyclohexyl)sulfamoyl)quinolin-2-yl)piperazine-1-carboxylate], the IC50 came out at 765 nM.

`C[C@@H](NC(=O)[C@H]1CC[C@H](NS(=O)(=O)c2cnc3c(c2)N(C(=O)COCc2ccccc2)CCN3)CC1)c1ccc(F)cc1` [Example 233, (1r,4R)-4-(1-(2-(benzyloxy)acetyl)-1,2,3,4-tetrahydropyrido[3,2-b]pyrazine-7-sulfonamido)-N-((R)-1-(4-fluorophenyl)ethyl)cyclohexanecarboxamide]: the IC50 was found to be 965 nM.

Regarding `CCOc1ccc2cc(S(=O)(=O)N[C@H]3CC[C@H](C(=O)N4CCNC[C@@H]4c4ccccc4)CC3)ccc2n1` [Example 234, 2-ethoxy-N-((1S,4r)-4-((S)-2-phenylpiperazine-1-carbonyl)cyclohexyl)quinoline-6-sulfonamide], the IC50 is 20 nM.

As for `CCOc1ccc2cc(S(=O)(=O)N[C@H]3CC[C@H](C(=O)N4CCN(C(=O)OC(C)(C)C)C[C@@H]4C(=O)OC)CC3)ccc2n1` [Example 235, (R)-1-tert-butyl 3-methyl 4-((1r,4R)-4-(2-ethoxyquinoline-6-sulfonamido)cyclohexanecarbonyl)piperazine-1,3-dicarboxylate], the IC50 was determined as 95 nM.

Take `CCOc1ccc2cc(S(=O)(=O)N[C@H]3CC[C@H](C(=O)N4CCNC[C@@H]4C(=O)OC)CC3)ccc2n1` [Example 236, (R)-methyl 1-((1r,4R)-4-(2-ethoxyquinoline-6-sulfonamido)cyclohexanecarbonyl)piperazine-2-carboxylate]: the IC50 was determined as 385 nM.

As for `C[C@@H](NC(=O)[C@H]1CC[C@H](NS(=O)(=O)c2ccc3nc(N4CCNC5(CC5)C4)ccc3c2)CC1)c1ccc(F)cc1` [Example 237, (1r,4R)-4-(2-(4,7-diazaspiro[2.5]octan-7-yl)quinoline-6-sulfonamido)-N-((R)-1-(4-fluorophenyl)ethyl)cyclohexanecarboxamide], the IC50 stood at 85 nM.

In the case of `C[C@@H](NC(=O)[C@H]1CC[C@H](NS(=O)(=O)c2ccc3nc(N4CCNCC4)ccc3c2)CC1)c1ccc(F)cc1` [Example 238, (1r,4R)-N-((R)-1-(4-fluorophenyl)ethyl)-4-(2-(piperazin-1-yl)quinoline-6-sulfonamido)cyclohexanecarboxamide], the IC50 was 65 nM.

As to `CCNC(=O)N1CCNc2ccc(S(=O)(=O)N[C@H]3CC[C@H](C(=O)N[C@H](C)c4ccc(F)cc4)CC3)cc21` [Example 239, N-ethyl-7-(N-((1R,4r)-4-((R)-1-(4-fluorophenyl)ethylcarbamoyl)cyclohexyl)sulfamoyl)-3,4-dihydroquinoxaline-1(2H)-carboxamide], the concentration for half-maximal inhibition (IC50) was 130 nM.

`CC(C)(C)OC(=O)N1CCN(C(=O)[C@H]2CC[C@H](NS(=O)(=O)c3ccc4c(c3)Cc3ccccc3-4)CC2)[C@@H](c2ccccc2)C1` [Example 240, (S)-tert-butyl 4-((1r,4S)-4-(9H-fluorene-2-sulfonamido)cyclohexanecarbonyl)-3-phenylpiperazine-1-carboxylate]: the IC50 is under 10 nM.

In the case of `CC(C)(C)OC(=O)N1CCN(C(=O)[C@H]2CC[C@H](NS(=O)(=O)c3ccc4c(c3)CCC4)CC2)[C@@H](c2ccccc2)C1` [Example 241, (S)-tert-butyl 4-((1r,4S)-4-(2,3-dihydro-1H-indene-5-sulfonamido)cyclohexanecarbonyl)-3-phenylpiperazine-1-carboxylate], the IC50 was determined as 25 nM.

As for `COC(=O)C1CN(c2ccc3cc(S(=O)(=O)N[C@H]4CC[C@H](C(=O)N[C@H](C)c5ccc(F)cc5)CC4)ccc3n2)CCN1` (stereo partly drawn) [Example 242, methyl 4-(6-(N-((1R,4r)-4-((R)-1-(4-fluorophenyl)ethylcarbamoyl)cyclohexyl)sulfamoyl)quinolin-2-yl)piperazine-2-carboxylate], the IC50 came to 195 nM.

As for `C[C@@H](NC(=O)[C@H]1CC[C@H](NS(=O)(=O)c2ccc3oc4ccccc4c3c2)CC1)c1ccc(F)cc1` [Example 243, (1r,4R)-4-(dibenzo[b,d]furan-2-sulfonamido)-N-((R)-1-(4-fluorophenyl)ethyl)cyclohexanecarboxamide], the IC50 is 15 nM.

On to `O=C([C@H]1CC[C@H](NS(=O)(=O)c2ccc3c(c2)Cc2ccccc2-3)CC1)N1CCNC[C@@H]1c1ccccc1` [Example 244, N-((1S,4r)-4-((S)-2-phenylpiperazine-1-carbonyl)cyclohexyl)-9H-fluorene-2-sulfonamide], for which the IC50 is under 10 nM.

Take `O=C([C@H]1CC[C@H](NS(=O)(=O)c2ccc3c(c2)CCC3)CC1)N1CCNC[C@@H]1c1ccccc1` [Example 245, N-((1S,4r)-4-((S)-2-phenylpiperazine-1-carbonyl)cyclohexyl)-2,3-dihydro-1H-indene-5-sulfonamide]: the IC50 came out at 35 nM.

As to `CCOc1ccc2cc(S(=O)(=O)N[C@H]3CC[C@H](C(=O)N4CCNC[C@@H]4C(=O)O)CC3)ccc2n1` [Example 246, (R)-1-((1r,4R)-4-(2-ethoxyquinoline-6-sulfonamido)cyclohexanecarbonyl)piperazine-2-carboxylic acid], the IC50 is over 35000 nM.

Turning to `C[C@@H](NC(=O)[C@H]1CC[C@H](NS(=O)(=O)c2ccc3nc(C#CCN4CCNCC4)ccc3c2)CC1)c1ccc(F)cc1` [Example 247, (1r,4R)-N-((R)-1-(4-fluorophenyl)ethyl)-4-(2-(3-(piperazin-1-yl)prop-1-ynyl)quinoline-6-sulfonamido)cyclohexanecarboxamide], the IC50 amounted to 30 nM.

Consider `C[C@@H](NC(=O)[C@H]1CC[C@H](NS(=O)(=O)c2ccc3nc(N4CCNC(C(F)(F)F)C4)ccc3c2)CC1)c1ccc(F)cc1` (stereo partly drawn) [Example 248, (1r,4R)-N-((R)-1-(4-fluorophenyl)ethyl)-4-(2-(3-(trifluoromethyl)piperazin-1-yl)quinoline-6-sulfonamido)cyclohexanecarboxamide], for which the IC50 stood at 210 nM.

On to `C[C@@H](NC(=O)[C@H]1CC[C@H](NS(=O)(=O)c2ccc3nc(-c4cccc(C(=O)O)c4)ccc3c2)CC1)c1ccc(F)cc1` [Example 249, 3-(6-(N-((1R,4r)-4-((R)-1-(4-fluorophenyl)ethylcarbamoyl)cyclohexyl)sulfamoyl)quinolin-2-yl)benzoic acid], for which the IC50 turned out to be 10 nM.

The record behind these values is patent US8697739B2, “Bicyclic acetyl-CoA carboxylase inhibitors and uses thereof” (Novartis AG, priority 2010, dated 2014).
